Measurements from PubChem BioAssay (NCI).
Where “and” joins values, the source holds several entries; their conditions need not be identical. Equal entries are not always repeated.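 All cell lines were grown in 96-well plates and treated with compound for 48 hours. GI50 marks 50% less growth. TGI: total growth inhibition.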

Tests used:
Assay in all cases: NCI-60 cell line screen, 48 h
A498 renal = tested on: A498 renal
ACHN renal = tested on: ACHN renal
HCC-2998 colon = tested on: HCC-2998 colon
PC-3 prostate = tested on: PC-3 prostate
RXF 393 renal = tested on: RXF 393 renal
SF-539 CNS = tested on: SF-539 CNS
SK-OV-3 ovarian = tested on: SK-OV-3 ovarian
TK-10 renal = tested on: TK-10 renal
UACC-62 melanoma = tested on: UACC-62 melanoma
HT29 colon = tested on: HT29 colon

SMILES | GI50 (A498 renal) | TGI (A498 renal) | GI50 (ACHN renal) | TGI (ACHN renal) | GI50 (HCC-2998 colon) | TGI (HCC-2998 colon) | GI50 (PC-3 prostate) | TGI (PC-3 prostate) | GI50 (RXF 393 renal) | TGI (RXF 393 renal) | GI50 (SF-539 CNS) | TGI (SF-539 CNS) | GI50 (SK-OV-3 ovarian) | TGI (SK-OV-3 ovarian) | GI50 (TK-10 renal) | TGI (TK-10 renal) | GI50 (UACC-62 melanoma) | TGI (UACC-62 melanoma) | GI50 (HT29 colon) | TGI (HT29 colon)
Cn1cc(-c2nc(-c3c[nH]c4ncccc34)cs2)c2ccccc21 | 34.5 µM | > 100 µM | 31.7 µM | > 100 µM | 1.16 µM | > 100 µM | 16.4 µM | > 100 µM | 17.9 µM | > 100 µM | 48.7 µM | > 100 µM | 65.3 µM | > 100 µM | 5.78 µM | 78.3 µM | 30.5 µM | > 100 µM |  | 
O=Nc1c(-c2c(O)[nH]c3cc(Br)ccc23)[nH]c2ccccc12 | 0.416 µM | 1.83 µM | 0.519 µM | 1.91 µM | 1.6 µM | 3.08 µM | 1.2 µM |  | 0.858 µM | 3.42 µM | 0.734 µM | 2.88 µM | 0.223 µM | 2.94 µM | 0.954 µM | 5.12 µM | 1.29 µM | 2.95 µM | 1.67 µM | 3.44 µM
COc1cc(/C=C/c2cc(/C=C/c3ccc(O)c(OC)c3)n(C(=O)Nc3ccccc3Cl)n2)ccc1O | 0.487 µM | 2.04 µM | 0.344 µM | 5.35 µM | 0.725 µM | 5.72 µM | 0.392 µM | 2.22 µM | 0.309 µM | 0.845 µM | 0.352 µM | 1.58 µM | 0.401 µM | 2.35 µM | 0.601 µM | 3.6 µM | 0.425 µM | 2.5 µM | 0.323 µM | 1.36 µM
O=c1cnnc(N/N=C/c2ccccc2O)[nH]1 | 1.81 µM | 23.3 µM | 1.19 µM | > 100 µM | 3.02 µM | > 100 µM | 2.99 µM | > 100 µM | 5.16 µM | 37.7 µM | 3.2 µM | > 100 µM | 3.6 µM | > 100 µM | 8.26 µM | > 100 µM | 1.31 µM | 7.88 µM | 0.646 µM | > 100 µM
CC(C)(C)c1cc(NC(=O)Nc2ccc(-c3cn4c(n3)sc3cc(OCCN5CCOCC5)ccc34)cc2)no1 | 13.9 µM and 2.13 µM and > 10 µM | 28.4 µM and 11 µM and > 10 µM | 3.48 µM and 1.22 µM and 8.06 µM | 18.1 µM and 13.2 µM and > 10 µM | 14.1 µM and 11.7 µM and 7.03 µM | 61.5 µM and 52.3 µM and > 10 µM | 4.63 µM and 0.771 µM and 5.06 µM | 19.1 µM and 14.2 µM and > 10 µM | 0.8 µM and 0.489 µM and 0.881 µM | 6.26 µM and 3.49 µM and > 10 µM | 0.698 µM and 0.303 µM and 0.623 µM | 15.4 µM and 1.65 µM and > 10 µM | 7.33 µM and 5.07 µM and > 10 µM | 22.4 µM and 19.2 µM and > 10 µM | 11.7 µM and 4.12 µM and > 10 µM | 24.1 µM and 17.3 µM and > 10 µM | 1.34 µM and 1.4 µM | 15.2 µM and 9.53 µM | 5.61 µM and 0.633 µM and 4.28 µM | 27 µM and 11.4 µM and > 10 µM
COc1ccc(C(=NN=C(N)N)c2ccc(OC)cc2)cc1 | 2.78 µM | 13.3 µM | 3.49 µM | 13.3 µM | 3.53 µM | 14.4 µM | 3.04 µM | 14.4 µM | 1.81 µM | 4.82 µM |  |  | 2.78 µM | 10.6 µM | 4.26 µM | 14.5 µM | 3.54 µM | 14.1 µM | 2.95 µM | 12.6 µM
O=C(c1ccc(C(F)(F)F)c(Cl)c1)N(Cc1ccc(Cl)cc1)c1ccc(-c2cc(C(F)(F)F)[nH]n2)c(O)c1 | 1.04 µM | 2.66 µM | 1.24 µM | 4.05 µM | 1.43 µM | 4.63 µM | 0.897 µM | 2.91 µM | 0.923 µM | 2.04 µM | 0.994 µM | 2.09 µM | 1.37 µM | 4.89 µM | 1.41 µM | 3.99 µM | 0.8 µM | 1.97 µM | 1.25 µM | 5.55 µM
O=C(NCCCl)Nc1cccnc1 |  | 40.5 µM |  | 27.4 µM |  | 37.5 µM |  | > 100 µM |  | > 100 µM |  | > 100 µM |  | 43.5 µM |  | 27.7 µM |  | > 100 µM |  | 34.9 µM
COc1ccc2c3c1OC1C(OC)(OC)C=C[C@@]4(Br)[C@@H](C2)N(CC2CC2)CC[C@]314 (stereo partly specified) |  | > 100 µM |  | > 100 µM |  | > 100 µM |  | > 100 µM |  | > 100 µM |  | > 100 µM |  | > 100 µM |  | > 100 µM |  | > 100 µM |  | > 100 µM
COC1=C(C)C(=O)c2c(c(CCCl)c3n2CCC3OC(C)=O)C1=O (stereo unspecified) | 0.0632 µM | 0.166 µM | 0.142 µM | 0.417 µM | 0.204 µM | 0.582 µM | 0.749 µM | 14.3 µM | 0.167 µM | 0.39 µM | 0.157 µM | 0.545 µM | 0.279 µM | 0.983 µM | 0.26 µM | 0.626 µM | 0.208 µM | 0.578 µM | 0.152 µM | 1.89 µM
COc1ccc(CCN(CC(=O)N(CC(N)=O)C2CCC[C@@H]2OCc2ccccc2)C(=O)CN(C(=O)CN(CCc2ccc(Cl)cc2)C(=O)CN(C(=O)CN(C)Cc2ccccc2F)[C@H](C)C2CCCCC2)[C@H](C)C2CCCCC2)cc1OC (stereo partly specified) | 1.84 µM | > 50 µM | 2.05 µM | > 50 µM | 1.61 µM | > 50 µM | 1.37 µM | > 50 µM | 1.49 µM | 3.84 µM | 1.43 µM | 4.54 µM | 2.5 µM | > 50 µM |  |  | 1.42 µM | > 50 µM | 1.25 µM | 5.75 µM
CN(C)CC(=O)Nc1ccc2ncnc(Nc3ccc(Oc4cccc(C(F)(F)F)c4)c(Cl)c3)c2c1 | 1.62 µM | 4.92 µM | 1.13 µM | 2.49 µM | 1.66 µM | 3.19 µM | 1.82 µM | 4.5 µM | 1.61 µM | 3.25 µM | 1.73 µM | 3.18 µM |  |  | 1.71 µM | 5.03 µM | 1.91 µM | 3.69 µM | 1.72 µM | 4.08 µM
CCOC(=O)C1=C(C)NC(=O)NC1CN1C(=O)c2ccccc2C1=O (stereo unspecified) | > 100 µM | > 100 µM | > 100 µM | > 100 µM | > 100 µM | > 100 µM | > 100 µM | > 100 µM | > 100 µM | > 100 µM | > 100 µM | > 100 µM | > 100 µM | > 100 µM | > 100 µM | > 100 µM | > 100 µM | > 100 µM | > 100 µM | > 100 µM
